Laboratory results reported in patent US12583873B2, “Amino acid mineral complex having immunopotentiating activity and composition for foods, pharmaceuticals, or feeds comprising same” (priority 2018, dated 2026).
Several values for one entry are separate records, joined by “and”; a condition that tells them apart may be missing. Equal values may be shown once. Entries after “also recorded” stand apart in the source; their conditions may differ. Read-outs that look alike come from different tables or passages of the source.

Tests used:
[1] = pig, in vivo
[2] = tested on: immunoglobulin (IgG) in serum; settings: pig, in vivo
[3] = tested on: Foot-and-mouth disease antibody (FMDV type 0); settings: pig, in vivo
H1N1 virus [4] = assay: Body weight change of H1N1-infected mice; format: in vivo; settings: H1N1-infected ICR mice; for Body weight, Start point (day 0): baseline before oral 20 μg/kg/day; for Body weight as compared to the negative control group / Body weight, End point (day 5): oral 20 μg/kg/day for 5 days; for Body weight, End point (day 5): start point 100.0
H1N1 virus [5] = assay: H1N1 virus content in lung tissue of mice; format: in vivo; settings: oral 20 μg/kg/day for 5 days; for Tissues virus titers: lung tissue of H1N1-infected ICR mice
[6] = pig, in vivo; remark: listed apart in the source

Compound | Body weight, End time [1] | Body weight, Start time [1] | IgG [2] | Antibody titer (PI) [3] | Positive rate [3] | Positive rate for the foot-and-mouth disease antibody [3] | Body weight, Start point (day 0) (H1N1 virus [4]) | Body weight as compared to the negative control group (H1N1 virus [4]) | Body weight, End point (day 5) (H1N1 virus [4]) | Tissues virus titers (H1N1 virus [5]) | Zinc [6] | Body weight as compared to CON 1 and CON 2 [1] | Immunoglobulin content in blood as compared to CON 1 and CON 2 [2] | Production of the foot-and-mouth disease antibody as compared to CON 1 and CON 2 [3] | IgG ([2]; hydrate) | Immunoglobulin content in blood as compared to CON 1 and CON 2 ([2]; hydrate) | Production of the foot-and-mouth disease antibody as compared to CON 1 and CON 2 ([3]; hydrate) | Virus content in the lung tissue (H1N1 virus [5]; H1N1-infected ICR mice) | Zinc content in blood as compared to CON 1 and CON 2 [6]
O=S(=O)([O-])[O-].[Zn+2] [CON 2, zinc sulfate] | 53.74b | 22.56 | 466b mg/dL | 47.52b | 50 | 50% | 100.0 | decreased body weight | 99.9a | 4.4b Log10 TCID50 | 98c μg/dL | – | – | – | – | – | – | – | –
zinc-aspartic acid complex [Example 1-1] | 54.43ab | 22.56 ^ | 480b mg/dL | 51.88b | 75 | 75% | 100.0 ^ | did not show significant increase in body weight | 104.8ab | 4.1b Log10 TCID50 | – | slight increase in body weight | not significantly different | increased slightly | – | – | – | – | –
zinc-aspartic acid complex [Comparative Example 3] | 54.55a | 22.56 ^ | 489b ^ mg/dL | 54.45b | 75 | 75% | 100.0 ^ | did not show significant increase in body weight | 103.7ab | 3.9b Log10 TCID50 | – | slight increase in body weight | not significantly different | increased slightly | – | – | – | – | –
[O-2].[Zn+2] [CON 1, zinc oxide] | 53.62b | 22.56 | 472b mg/dL | 47.38b | 50 | 50% | – | – | – | – | 100c μg/dL | – | – | – | – | – | – | – | –
N[C@@H](CC(=O)[O-])C(=O)[O-].O.[Zn+2] [Example 1-2, zinc aspartate hydrate] | – | 22.56 ^ | – | – | – | 100% | 100.0 | did not show significant increase in body weight | 106.8b | 2.1a Log10 TCID50 | – | slight increase in body weight | – | – | 504ab mg/dL and 546a mg/dL | significant increase; also recorded: distinct, although not significant, increase | increased slightly; also recorded: Significant increase | decreased significantly | increased significantly
